Each block holds one molecule with its values, some of them ahead of it.
What was measured:
[1] = human bioavailability comparison study, Tablet Formulation 9 vs co-administered single entity products; type: in vivo; details: for AUC(0-inf) / Cmax / AUC(0-t) / concentration at 24 h: human plasma, fasted; for concentration at 24 h: read-out: C24 GM
Experimental: (§1) The blend is lubricated with magnesium stearate prior to roller compaction. Following roller compaction, the granules are further lubricated with magnesium stearate before compression on a rotary press. Tablet properties of apparent density and solid fraction are determined by gravimetric measurement of the drug product and geometric estimation of size with corresponding component powder measure of true density using helium pycnometry. The core tablets are then film coated and waxed to complete manufacture.
(§2) The reference in the study was co-administration of single entity products to achieve the equivalent total dose. In this cross-over design study all subjects were in the fasted state. Tablet Formulations 9b, and 10b were administered as Treatment C in the respective studies. Tablet Formulations 9a, and 10a were administered as Treatment B in the respective studies. The co-administration of the reference products were identified as Treatment A. After administration, blood samples were taken periodically, and the plasma concentration of the analytes, both primary compounds and metabolites, determined to generate the pharmacokinetic profiles and related specific metrics. These metrics included Cmax, AUC, and C24 (where quantifiable). Summary results from the human PK trials for Tablet Formulation 9 and Tablet Formulation 10 products are provided in Table 10 to Table 13 and Table 14 to 17, respectively. The resulting metrics were then compared in relation to the reference single entity products to assess similarity.

[2] = human bioavailability comparison study, Tablet Formulation 10 vs co-administered single entity products; type: in vivo; details: for AUC(0-inf) / Cmax / AUC(0-t) / concentration at 24 h: human plasma, fasted; for concentration at 24 h: read-out: C24 GM
Experimental: as §1, §2

log D = type: physicochemical; details: pH=7
[3] = Treatment B (Tablet Formulation 9a) / Treatment A (single entities)
[4] = Treatment C (Tablet Formulation 9b) / Treatment A (single entities)
[5] = human, in vivo, Treatment A: co-administered single entity products, equivalent total dose
[6] = human, in vivo, Treatment A: co-administered single entity products, equivalent total dose, read-out: AUC0-24 GM
[7] = human, in vivo, Treatment A: co-administered single entity products, equivalent total dose, read-out: AUC0-last GM
[8] = human, in vivo, Treatment B: two units Tablet Formulation 9a
[9] = human, in vivo, Treatment C: two units Tablet Formulation 9b
[10] = Treatment B (Tablet Formulation 10a) / Treatment A (single entities)
[11] = Treatment C (Tablet Formulation 10b) / Treatment A (single entities)
[12] = human, in vivo, Treatment B: one unit Tablet Formulation 10a
[13] = human, in vivo, Treatment C: one unit Tablet Formulation 10b
[14] = human, plasma, oral, Treatment A: co-administered single entity products, equivalent total dose
[15] = human, plasma, oral, Treatment A: co-administered single entity products, equivalent total dose, read-out: AUC0-24 GM
[16] = human, plasma, oral, Treatment A: co-administered single entity products, equivalent total dose, read-out: AUC0-last GM
[17] = human, plasma, oral, Treatment B: two units Tablet Formulation 9a (450 mg Compound I, 100 mg Compound II, 50 mg Compound III), read-out: AUC0-last GM
[18] = human, plasma, oral, Treatment B: two units Tablet Formulation 9a
[19] = human, plasma, oral, Treatment B: two units Tablet Formulation 9a, read-out: AUC0-24 GM
[20] = human, plasma, oral, Treatment C: two units Tablet Formulation 9b (450 mg Compound I, 100 mg Compound II, 50 mg Compound III), read-out: AUC0-last GM
[21] = human, plasma, oral, Treatment C: two units Tablet Formulation 9b
[22] = human, plasma, oral, Treatment C: two units Tablet Formulation 9b, read-out: AUC0-24 GM
[23] = human, plasma, oral, Treatment B: one unit Tablet Formulation 10a (300 mg Compound I, 100 mg Compound II, 50 mg Compound III), read-out: AUC0-last GM
[24] = human, plasma, oral, Treatment B: one unit Tablet Formulation 10a
[25] = human, plasma, oral, Treatment B: one unit Tablet Formulation 10a, read-out: AUC0-24 GM
[26] = human, plasma, oral, Treatment C: one unit Tablet Formulation 10b (300 mg Compound I, 100 mg Compound II, 50 mg Compound III), read-out: AUC0-last GM
[27] = human, plasma, oral, Treatment C: one unit Tablet Formulation 10b
[28] = human, plasma, oral, Treatment C: one unit Tablet Formulation 10b, read-out: AUC0-24 GM

SMILES: CC(C)OC(=O)[C@@H](C)NP(=O)(OC[C@H]1O[C@@H](n2ccc(=O)[nH]c2=O)[C@](C)(Cl)[C@@H]1O)Oc1ccccc1 (stereo partly drawn) [Compound I, (2R)-isopropyl 2-(((((2R,3R,4R,5R)-4-chloro-5-(2,4-dioxo-3,4-dihydropyrimidin-1(2H)-yl)-3-hydroxy-4-methyltetrahydrofuran-2-yl)methoxy)(phenoxy)phosphoryl)amino)propanoate]
AUC0-24 B/A GM ratio [1, 3]: 1.23
AUC0-last B/A GM ratio [1, 3]: 1.24
AUC0-∞ B/A GM ratio [1, 3]: 1.23
Cmax B/A GM ratio [1, 3]: 1.44
AUC0-24 C/A GM ratio [1, 4]: 1.37
AUC0-last C/A GM ratio [1, 4]: 1.38
AUC0-∞ C/A GM ratio [1, 4]: 1.36
Cmax C/A GM ratio [1, 4]: 1.69
AUC(0-inf) [1, 5]: 2.6 µM·h
Cmax [1, 5]: 738 nM
AUC(0-t) [1, 6]: 2.56 µM·h
AUC(0-t) [1, 7]: 2.52 µM·h
AUC(0-t) ([1]; human, in vivo, Treatment B: two units Tablet Formulation 9a (450 mg Compound I, 100 mg Compound II, 50 mg Compound III), read-out: AUC0-last GM): 3.11 µM·h
AUC(0-inf) [1, 8]: 3.2 µM·h
Cmax [1, 8]: 1060 nM
AUC(0-t) ([1]; human, in vivo, Treatment B: two units Tablet Formulation 9a, read-out: AUC0-24 GM): 3.15 µM·h
AUC(0-t) ([1]; human, in vivo, Treatment C: two units Tablet Formulation 9b (450 mg Compound I, 100 mg Compound II, 50 mg Compound III), read-out: AUC0-last GM): 3.48 µM·h
AUC(0-inf) [1, 9]: 3.54 µM·h
Cmax [1, 9]: 1250 nM
AUC(0-t) ([1]; human, in vivo, Treatment C: two units Tablet Formulation 9b, read-out: AUC0-24 GM): 3.52 µM·h
AUC0-24 B/A GM ratio [2, 10]: 0.96
AUC0-last B/A GM ratio [2, 10]: 0.95
AUC0-∞ B/A GM ratio [2, 10]: 0.98
Cmax B/A GM ratio [2, 10]: 0.98
AUC0-24 C/A GM ratio [2, 11]: 1.01
AUC0-last C/A GM ratio [2, 11]: 1.00
AUC0-∞ C/A GM ratio [2, 11]: 1.01
Cmax C/A GM ratio [2, 11]: 1.18
AUC(0-inf) [2, 5]: 1.69 µM·h
Cmax [2, 5]: 525 nM
AUC(0-t) [2, 6]: 1.65 µM·h
AUC(0-t) [2, 7]: 1.63 µM·h
AUC(0-t) ([2]; human, in vivo, Treatment B: one unit Tablet Formulation 10a (300 mg Compound I, 100 mg Compound II, 50 mg Compound III), read-out: AUC0-last GM): 1.55 µM·h
AUC(0-inf) [2, 12]: 1.65 µM·h
Cmax [2, 12]: 517 nM
AUC(0-t) ([2]; human, in vivo, Treatment B: one unit Tablet Formulation 10a, read-out: AUC0-24 GM): 1.58 µM·h
AUC(0-t) ([2]; human, in vivo, Treatment C: one unit Tablet Formulation 10b (300 mg Compound I, 100 mg Compound II, 50 mg Compound III), read-out: AUC0-last GM): 1.63 µM·h
AUC(0-inf) [2, 13]: 1.7 µM·h
Cmax [2, 13]: 618 nM
AUC(0-t) ([2]; human, in vivo, Treatment C: one unit Tablet Formulation 10b, read-out: AUC0-24 GM): 1.67 µM·h

SMILES: COC(=O)N[C@H](C(=O)N1CCC[C@H]1c1nc(-c2ccc3c(c2)O[C@@H](c2ccccc2)n2c-3cc3cc(-c4c[nH]c([C@@H]5CCCN5C(=O)[C@@H](NC(=O)OC)C(C)C)n4)ccc32)c[nH]1)C(C)C [Compound II, dimethyl N,N′-([(6S)-6-phenylindolo[1,2-c][1,3]benzoxazine-3,10-diyl]bis{1H-imidazole-5,2-diyl-(2S)-pyrrolidine-2,1-diyl[(2S)-3-methyl-1-oxobutane-1,2-diyl]})dicarbamate]
Cmax ([1]; Treatment C: two units Tablet Formulation 9b): 115 nM
AUC(0-inf) [1, 14]: 2.04 µM·h
Cmax [1, 14]: 113 nM
AUC(0-t) [1, 15]: 1.21 µM·h
AUC(0-t) [1, 16]: 2.01 µM·h
concentration at 24 h [1, 14]: 32.3 nM
AUC(0-t) [1, 17]: 1.59 µM·h
AUC(0-inf) [1, 18]: 1.61 µM·h
AUC(0-t) [1, 19]: 0.938 µM·h
concentration at 24 h [1, 18]: 25.2 nM
AUC(0-t) [1, 20]: 2.35 µM·h
AUC(0-inf) [1, 21]: 2.38 µM·h
AUC(0-t) [1, 22]: 1.41 µM·h
concentration at 24 h [1, 21]: 37.4 nM
Cmax ([2]; Treatment C: one unit Tablet Formulation 10b): 102 nM
AUC(0-inf) [2, 14]: 1.84 µM·h
Cmax [2, 14]: 101 nM
AUC(0-t) [2, 15]: 1.12 µM·h
AUC(0-t) [2, 16]: 1.81 µM·h
concentration at 24 h [2, 14]: 28.5 nM
AUC(0-t) [2, 23]: 1.55 µM·h
AUC(0-inf) [2, 24]: 1.58 µM·h
Cmax [2, 24]: 81.8 nM
AUC(0-t) [2, 25]: 0.95 µM·h
concentration at 24 h [2, 24]: 25.1 nM
AUC(0-t) [2, 26]: 1.83 µM·h
AUC(0-inf) [2, 27]: 1.85 µM·h
AUC(0-t) [2, 28]: 1.14 µM·h
concentration at 24 h [2, 27]: 29.2 nM

logD (log D): -3
AUC0-24 B/A GM ratio [1, 3]: 0.72
AUC0-last B/A GM ratio [1, 3]: 0.77
AUC0-∞ B/A GM ratio [1, 3]: 0.76
C24 B/A GM ratio [1, 3]: 0.85
Cmax B/A GM ratio [1, 3]: 0.64
AUC0-24 C/A GM ratio [1, 4]: 1.00
AUC0-last C/A GM ratio [1, 4]: 0.97
AUC0-∞ C/A GM ratio [1, 4]: 0.88
C24 C/A GM ratio [1, 4]: 1.04
Cmax C/A GM ratio [1, 4]: 0.89
AUC(0-inf) [1, 14]: 0.7 µM·h
Cmax [1, 14]: 38.5 nM
AUC(0-t) [1, 15]: 0.316 µM·h
AUC(0-t) [1, 16]: 0.538 µM·h
concentration at 24 h [1, 14]: 6.38 nM
AUC(0-t) [1, 17]: 0.415 µM·h
AUC(0-inf) [1, 18]: 0.53 µM·h
Cmax [1, 18]: 24.8 nM
AUC(0-t) [1, 19]: 0.229 µM·h
concentration at 24 h [1, 18]: 5.41 nM
AUC(0-t) [1, 20]: 0.522 µM·h
AUC(0-inf) [1, 21]: 0.617 µM·h
Cmax [1, 21]: 34.1 nM
AUC(0-t) [1, 22]: 0.317 µM·h
concentration at 24 h [1, 21]: 6.63 nM
AUC0-24 B/A GM ratio [2, 10]: 0.71
AUC0-last B/A GM ratio [2, 10]: 0.72
AUC0-∞ B/A GM ratio [2, 10]: 0.69
C24 B/A GM ratio [2, 10]: 0.80
Cmax B/A GM ratio [2, 10]: 0.70
AUC0-24 C/A GM ratio [2, 11]: 0.86
AUC0-last C/A GM ratio [2, 11]: 0.91
AUC0-∞ C/A GM ratio [2, 11]: 0.95
C24 C/A GM ratio [2, 11]: 0.85
Cmax C/A GM ratio [2, 11]: 0.91
AUC(0-inf) [2, 14]: 0.5 µM·h
Cmax [2, 14]: 27.5 nM
AUC(0-t) [2, 15]: 0.24 µM·h
AUC(0-t) [2, 16]: 0.36 µM·h
concentration at 24 h [2, 14]: 4.85 nM
AUC(0-t) [2, 23]: 0.26 µM·h
AUC(0-inf) [2, 24]: 0.34 µM·h
Cmax [2, 24]: 19.3 nM
AUC(0-t) [2, 25]: 0.17 µM·h
concentration at 24 h [2, 24]: 3.89 nM
AUC(0-t) [2, 26]: 0.33 µM·h
AUC(0-inf) [2, 27]: 0.47 µM·h
Cmax [2, 27]: 24.9 nM
AUC(0-t) [2, 28]: 0.2 µM·h
concentration at 24 h [2, 27]: 4.11 nM
SMILES: C=C[C@@H]1C[C@]1(NC(=O)[C@@H]1C[C@@H]2CN1C(=O)[C@H](C(C)(C)C)NC(=O)O[C@@H]1C[C@H]1CCCCCc1nc3ccc(OC)cc3nc1O2)C(=O)NS(=O)(=O)C1CC1 [Compound III, (1aR,5S,8S,10R,22aR)-N-[(1R,2S)-1-[(cyclopropylsulfonamido)carbonyl]-2-ethenylcyclopropyl]-14-methoxy-5-(2-methylpropan-2-yl)-3,6-dioxo-1,1a,3,4,5,6,9,10,18,19,20,21,22,22a-tetradecahydro-8H-7,10-methanocyclopropa[18,19][1,10,3,6]dioxadiazacyclononadecino[11,12-b]quinoxaline-8-carboxamide hydrate]
